Assay results as given in PubChem BioAssay (NCI).
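Here, GI50 denotes the concentration required for 50% inhibition of growth. The concentration for full growth arrest is given as TGI.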

Key:
Experiment in all cases: NCI anticancer screen, dose series, 384-well format
[1] = system: SN12C renal
[2] = system: SF-268 CNS
[3] = system: OVCAR-8 ovarian
[4] = system: NCI-H226 lung
[5] = system: U251 glioblastoma
[6] = system: OVCAR-3 ovarian
[7] = system: UACC-62 melanoma
[8] = system: UACC-257 melanoma
[9] = system: SK-OV-3 ovarian
[10] = system: NCI-H23 lung
[11] = system: MCF7 breast
[12] = system: A549 NSCLC
[13] = system: LOX IMVI melanoma
[14] = system: HL-60(TB) leukemia
[15] = system: M14 melanoma
[16] = system: PC-3 prostate
[17] = system: KM12 colon
[18] = system: HT29 colon
[19] = system: NCI-H322M lung
[20] = system: K-562 leukemia
[21] = system: HOP-62 NSCLC
[22] = system: NCI/ADR-RES ovarian
[23] = system: IGROV1 ovarian
[24] = system: HCT-116 colon
[25] = system: MOLT-4 leukemia
[26] = system: ACHN renal
[27] = system: MDA-MB-435 melanoma
[28] = system: BT-549 breast
[29] = system: HS 578T breast
[30] = system: DU-145 prostate
[31] = system: RPMI-8226 leukemia
[32] = system: A498 renal
[33] = system: OVCAR-4 ovarian
[34] = system: HCC-2998 colon
[35] = system: SF-539 CNS
[36] = system: SW-620 colon
[37] = system: CAKI-1 renal
[38] = system: SNB-75 CNS
[39] = system: MALME-3M melanoma
[40] = system: HOP-92 NSCLC
[41] = system: SK-MEL-5 melanoma
[42] = system: SF-295 CNS
[43] = system: MDA-MB-231 breast
[44] = system: EKVX NSCLC
[45] = system: NCI-H522 lung
[46] = system: SK-MEL-28 melanoma
[47] = system: NCI-H460 NSCLC
[48] = system: MDA-MB-468 breast
[49] = system: TK-10 renal
[50] = system: HCT-15 colon
[51] = system: SNB-19 CNS
[52] = system: RXF 393 renal
[53] = system: 786-0 renal
[54] = system: UO-31 renal
[55] = system: T-47D breast
[56] = system: CCRF-CEM leukemia
[57] = system: COLO 205 colon

C[C@H](Nc1ccc2c(c1)OCCn1cc(N3C(=O)OC[C@H]3C(F)F)nc1-2)C(N)=O
GI50 [1]: 5.74 µM | TGI [1]: > 100 µM | GI50 [2]: 24 µM | TGI [2]: > 100 µM | GI50 [3]: 27 µM | TGI [3]: > 100 µM | GI50 [4]: 38.5 µM | TGI [4]: > 100 µM | GI50 [5]: 75.8 µM | TGI [5]: > 100 µM | GI50 [6]: 3.27 µM | TGI [6]: 21.7 µM | GI50 [7]: 5.64 µM | TGI [7]: > 100 µM | GI50 [8]: > 100 µM | TGI [8]: > 100 µM | GI50 [9]: 0.049 µM | TGI [9]: > 100 µM | GI50 [10]: 21.8 µM | TGI [10]: > 100 µM | GI50 [11]: 0.039 µM | TGI [11]: > 100 µM | GI50 [12]: 12.7 µM | TGI [12]: > 100 µM | GI50 [13]: 12.5 µM | TGI [13]: 43.9 µM | GI50 [14]: 0.156 µM | TGI [14]: 3.3 µM | GI50 [15]: > 100 µM | TGI [15]: > 100 µM | GI50 [16]: 3.82 µM | TGI [16]: > 100 µM | GI50 [17]: 19.5 µM | TGI [17]: 54.2 µM | GI50 [18]: 0.289 µM | TGI [18]: > 100 µM | GI50 [19]: 2.85 µM | TGI [19]: 57.3 µM | GI50 [20]: > 100 µM | TGI [20]: > 100 µM | GI50 [21]: 34.6 µM | TGI [21]: > 100 µM | GI50 [22]: > 100 µM | TGI [22]: > 100 µM | GI50 [23]: 0.0195 µM | TGI [23]: 0.141 µM | GI50 [24]: 25.9 µM | TGI [24]: > 100 µM | GI50 [25]: 1.07 µM | TGI [25]: 10.6 µM | GI50 [26]: 15.2 µM | TGI [26]: > 100 µM | GI50 [27]: 58.1 µM | TGI [27]: > 100 µM | GI50 [28]: 14.5 µM | TGI [28]: > 100 µM | GI50 [29]: 6.24 µM | TGI [29]: 48.4 µM | GI50 [30]: 18 µM | TGI [30]: > 100 µM | GI50 [31]: 16.1 µM | TGI [31]: 31.7 µM | GI50 [32]: 15.2 µM | TGI [32]: > 100 µM | GI50 [33]: 43.8 µM | TGI [33]: > 100 µM | GI50 [34]: 5.68 µM | TGI [34]: > 100 µM | GI50 [35]: 17.6 µM | TGI [35]: > 100 µM | GI50 [36]: 95.4 µM | TGI [36]: > 100 µM | GI50 [37]: 3.11 µM | TGI [37]: 46.3 µM | GI50 [38]: 3.2 µM | TGI [38]: > 100 µM | GI50 [39]: 5.85 µM | TGI [39]: > 100 µM | GI50 [40]: 2.2 µM | TGI [40]: > 100 µM | GI50 [41]: 43.4 µM | TGI [41]: > 100 µM | GI50 [42]: 14.6 µM | TGI [42]: > 100 µM | GI50 [43]: 25.9 µM | TGI [43]: > 100 µM | GI50 [44]: 2.99 µM | TGI [44]: 46.7 µM | GI50 [45]: 19 µM | TGI [45]: > 100 µM | GI50 [46]: 7.96 µM | TGI [46]: > 100 µM | GI50 [47]: 0.802 µM | TGI [47]: > 100 µM | GI50 [48]: 1.57 µM | TGI [48]: 10.9 µM | GI50 [49]: 4.03 µM | TGI [49]: > 100 µM | GI50 [50]: 0.73 µM | TGI [50]: > 100 µM | GI50 [51]: 85.3 µM | TGI [51]: > 100 µM | GI50 [52]: 15.9 µM | TGI [52]: 71.4 µM | GI50 [53]: 40.5 µM | TGI [53]: > 100 µM | GI50 [54]: 6.24 µM | TGI [54]: > 100 µM | GI50 [55]: 0.0131 µM | TGI [55]: 0.0728 µM | GI50 [56]: 5.71 µM | TGI [56]: > 100 µM | GI50 [57]: 0.987 µM | TGI [57]: > 100 µM
